From article PMC8041433 (Environmental Health Perspectives, 2021)
Values joined by “and” are separate entries in the source; they are usually repeats but may differ in a detail not shown here. Equal entries are not always repeated. Where two headings read alike, the source gives them in different places.

What was measured:
[1] = molecular target: T1, recombinant human AChE (Homo sapiens, UniProt P22303); assay: biochemical
[2] = molecular target: AChE in neural stem cells (Homo sapiens, UniProt P22303); assay: cell-based
Sequence of AChE in neural stem cells (P22303 32-614): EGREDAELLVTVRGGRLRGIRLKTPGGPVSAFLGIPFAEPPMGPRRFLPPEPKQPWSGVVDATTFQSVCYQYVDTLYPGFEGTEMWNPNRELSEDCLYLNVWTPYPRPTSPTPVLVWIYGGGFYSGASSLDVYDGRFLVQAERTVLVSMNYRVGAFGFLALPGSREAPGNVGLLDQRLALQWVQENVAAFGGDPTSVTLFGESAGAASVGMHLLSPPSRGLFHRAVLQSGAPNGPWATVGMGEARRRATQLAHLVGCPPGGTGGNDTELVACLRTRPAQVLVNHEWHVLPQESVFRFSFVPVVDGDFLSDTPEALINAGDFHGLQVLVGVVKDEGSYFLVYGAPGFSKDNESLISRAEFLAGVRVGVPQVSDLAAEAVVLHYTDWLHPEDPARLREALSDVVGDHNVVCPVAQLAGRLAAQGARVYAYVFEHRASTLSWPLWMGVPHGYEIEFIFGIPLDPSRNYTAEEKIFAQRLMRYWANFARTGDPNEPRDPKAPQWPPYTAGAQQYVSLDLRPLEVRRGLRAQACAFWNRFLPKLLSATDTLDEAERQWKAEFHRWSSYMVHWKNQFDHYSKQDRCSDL

[3] = molecular target: T1, recombinant human AChE; assay: biochemical; remark: listed apart in the source
[4] = molecular target: AChE in SH-SY5Y spheroids (Homo sapiens, UniProt P22303); assay: cell-based
Sequence of AChE in SH-SY5Y spheroids (P22303 32-614): as above

[5] = molecular target: T1, recombinant human AChE
[6] = molecular target: AChE in SH-SY5Y cells (Homo sapiens, UniProt P22303); assay: cell-based
Sequence of AChE in SH-SY5Y cells (P22303 32-614): as above

[7] = molecular target: T1, recombinant human AChE; assay: biochemical; remark: listed apart in the source
[8] = molecular target: AChE in neural stem cell spheroids (Homo sapiens, UniProt P22303); assay: cell-based
Sequence of AChE in neural stem cell spheroids (P22303 32-614): as above

[9] = molecular target: T1, recombinant human AChE; assay: biochemical; format: biochemical; settings: for AC50: AC50 (uM)
[10] = potency (IC50), Enzyme with microsomes
[11] = potency (IC50), SH-SY5Y spheroids (24 h)
[12] = potency (IC50), SH-SY5Y spheroids (48 h)
[13] = potency (IC50), SH-SY5Y cells monolayer
[14] = potency (IC50), Neural stem cell spheroid (24 h)
[15] = potency (IC50), Neural stem cell spheroid (48 h)
[16] = read-out: potency (IC50), SH-SY5Y spheroids (48 h)
Wherever IR or R is given: key: Reversible (R); Irreversible (IR); ND, not detected in enzyme-based AChE inhibition assay from current study.

T1 sequence (P22303 32-614): as above

SMILES | IC50 [1, 10] [µM] | IC50 [2] [µM] | CC-v2 (curve classes) [3] | Efficacy [3] | IC50 ([3]; potency (IC50), Enzyme) [µM] | IC50 [4, 11] [µM] | IC50 [4, 12] [µM] | CC-v2 (curve classes) [5] | Efficacy [5] | CC-v2 (curve classes) [6] | IC50 ([6]; IC50 (uM)) | IC50 [6, 13] [µM] | IC50 [7] [µM] | IC50 [8, 14] [µM] | IC50 [8, 15] [µM] | IR or R [9] | AC50 [9] | IC50 ([3]; IC50 (uM)) | other results
CCN(CC)CCOc1ccc2c(c1)C(=O)c1cc(OCCN(CC)CC)ccc1-2 [Tilorone, reference compound] | 5.46 | 5.88 | -1.1 | -92.014 | 4.18 | 1.34 | 1.42 | -1.1 | -84.739 | -1.1 | 0.977 µM and 1.1 µM and 0.776 µM | 1.77 | 5.52 ± 1.16 | 19.6 | 25.7 | R | 6.85 µM (2×) and 6.11 µM (2×) and 4.85 µM and 7.69 µM and 9.68 µM |  | reversibility of AChE inhibition (result in words) [9]: reversible
CCOP(=S)(OCC)Oc1nc(Cl)c(Cl)cc1Cl [Chlorpyrifos, reference compound] | 1.4 | 11.9 |  |  | 48 | 41.7 | 36.7 | -1.1 |  | -2.1 | 35.6 µM and 35.7 µM and 44.9 µM and 63.5 µM | 41.1 | 95.7 ± 6.24 |  | 2.58 |  | 28 µM and 44.4 µM and 62.7 µM and 49.8 µM and 55.9 µM | 89.4 µM and 79.9 µM and 89.6 µM | IC50 ([6]; read-out: IC50): 39.9 µM and 40 µM; IC50 ([8]; read-out: potency (IC50), Neural stem cell spheroid (24 h)): 1.21 µM
CCOP(=S)(OCC)OC(Cl)C(Cl)(Cl)Cl (stereo not drawn) [Chlorethoxyfos] | 5.86 | 46.2 | -2.1 | -89.198 | 60.4 | 33.2 |  | -1.1 | -100.975 | -2.1 | 35.6 µM | 28.3 | 65.2 ± 4.42 | 42.8 | 47 |  | 1.57 µM | 79.6 µM | IC50 ([1]; IC50 (uM)): 28.3 µM; IC50 [4, 16]: 37.3 µM; IC50 ([6]; read-out: IC50): 31.7 µM
Cc1c(Cl)c(=O)oc2cc(OP(=O)(OCCCl)OCCCl)ccc12 [Haloxon] | 2.81 ± 0.32 | 0.39 | -1.1 | -92.736 | 0.63 ± 0.11 | 0.88 ± 0.64 | 1.12 ± 0.13 | -1.1 | -94.886 | -1.1 | 3.89 µM and 4.36 µM and 3.09 µM | 1.51 ± 0.09 | 1.35 ± 0.09 | 0.2 ± 0.17 | 0.18 ± 0.05 |  | 1.4 µM and 1.57 µM (2×) and 1.11 µM (2×) and 1.25 µM and 885 nM and 993 nM |  | 
Cc1nc2n(c(=O)c1CCN1CCC(C(=O)c3ccc(F)cc3)CC1)CCS2 [Setoperone, reference compound] | 18.6 ± 1.21 | 8.35 ± 1.14 | -2.2 | -57.619 | 14.2 ± 0.96 | 2.66 ± 1.88 | 13.7 ± 1.58 | 4 | 0 | -2.1 | 13.8 µM and 12.3 µM and 15.5 µM | 16 ± 1.08 | 20.1 ± 1.36 |  |  | R |  | 30.9 µM | potency (IC50), Neural stem cell spheroid (24 h) [8]: Inactive; AC50 ([9]; activity_5): 4.32 µM and 6.11 µM and 7.69 µM; AC50 ([9]; activity_10): 4.85 µM and 7.69 µM and 10.9 µM; AC50 ([9]; activity_60): 6.11 µM and 6.85 µM
O=C(Nc1cccc(C2=NCCN2)c1)Nc1cccc(C2=NCCN2)c1 [Imidocarb dipropionate, reference compound] | 27.6 ± 5.16 | 19.3 | -2.1 | -76.607 | 18.5 ± 10.1 | 6.56 ± 6.21 | 7.41 ± 0.48 | 4 | 0 | -1.1 | 3.79 µM and 4.25 µM | 5.07 ± 0.64 | 25.7 ± 5.81 | 19.4 ± 2.22 | 19.3 | R | 15.3 µM (2×) and 17.2 µM and 19.3 µM and 10.9 µM and 13.7 µM and 21.7 µM and 12.2 µM | 10.7 µM | 
Cc1nc(N(C)C)nc(OC(=O)N(C)C)c1C [Pirimicarb] | 8.53 ± 0.55 | 2.84 ± 0.65 | -1.1 | -85.325 | 12.7 ± 2.36 | 7.09 ± 4.92 |  | -2.2 | -73.016 | -1.1 | 11.2 µM | 7.42 ± 2.77 | 8.21 ± 0.56 | 1.4 ± 0.16 | 2.47 | R |  |  | IC50 [4, 16]: 15.2 ± 0.99 µM; AC50 ([9]; activity_5): 49.8 µM and 62.7 µM and 22.2 µM; AC50 ([9]; activity_10): 19.8 µM and 44.4 µM and 49.8 µM; AC50 ([9]; activity_60): 19.8 µM and 5.59 µM and 9.93 µM
CCOP(=S)(Oc1cnc(C(C)(C)C)nc1)OC(C)C (stereo not drawn) [Tebupirimfos] | 4.29 | 9.97 | -2.1 | -96.664 | 46.2 | 28.2 | 24.2 | -1.1 | -95.03 | -2.1 | 39.9 µM and 35.6 µM | 20.1 | 42.8 ± 2.79 | 2.08 | 3.7 |  | 70.3 µM and 55.9 µM and 49.8 µM |  | IC50 ([1]; IC50 (uM)): 10 µM; IC50 ([3]; read-out: IC50): 63.3 µM
CCOP(=O)(Sc1ccccc1)Sc1ccccc1 [Edifenphos] | 7.31 ± 0.49 | 1.31 ± 0.23 | -2.1 | -122.577 | 4.79 ± 0.31 | 4.79 ± 1.57 | 2.08 ± 0.37 | -3 | -113.282 | -1.1 | 3.99 µM and 3.17 µM and 5.02 µM | 1.73 ± 0.43 | 3.03 ± 0.2 | 0.88 ± 0.1 | 1.21 ± 0.17 |  | 28 µM and 62.7 µM and 31.4 µM (2×) and 25 µM and 49.8 µM and 35.2 µM |  | 
CCCCN(CCCC)SN(C)C(=O)Oc1cccc2c1OC(C)(C)C2 [Carbosulfan] | 0.44 | 10.9 | -1.1 |  | 1.67 | 0.46 | 0.68 | -1.1 |  | -1.1 | 0.159 µM and 0.809 µM and 0.126 µM and 1.14 µM and 0.224 µM and 0.573 µM | 3.23 | 1.36 ± 0.19 | 5.25 | 8.89 | R | 993 nM (3×) and 1.11 µM and 885 nM |  | IC50 ([1]; IC50 (uM)): 3.56 µM and 0.573 µM
COc1ccc(C(=O)NCc2ccc(OCCN(C)C)cc2)cc1OC.Cl [Itopride hydrochloride, reference compound] | 19.4 ± 2.22 | 11.2 ± 3.11 | -2.2 | -69.798 | 12.7 ± 0.85 | 4.44 ± 3.53 | 11.2 ± 3.12 | 4 | 0 | -1.1 and -2.1 | 6.92 µM and 4.9 µM and 5.5 µM | 7.68 | 22.6 ± 1.53 | 23.5 ± 3.23 | 14.2 | R | 15.3 µM (3×) and 21.7 µM and 17.2 µM and 19.3 µM | 27.5 µM | 
CNC(=O)O/N=C/C(C)(C)[S+](C)[O-] (stereo not drawn) [Aldicarb sulfoxide] | 0.68 ± 0.09 | 0.34 ± 0.04 | -1.1 |  | 0.41 ± 0.02 | 0.46 ± 0.08 | 0.56 | -1.1 |  | -1.1 | 0.354 µM and 0.322 µM and 0.397 µM and 0.287 µM | 0.67 ± 0.04 | 0.78 ± 0.22 | 0.24 ± 0.03 | 0.27 ± 0.17 |  | 498 nM and 789 nM and 885 nM and 993 nM and 1.11 µM and 559 nM (2×) and 198 nM and 627 nM |  | fold more potent than aldicarb [3]: 15 fold; IC50 ([3]; IC50): 0.61 µM
CCOC(=O)CCN(SN(C)C(=O)Oc1cccc2c1OC(C)(C)C2)C(C)C [Benfuracarb] | 1.4 | 7.67 | -1.1 | -95.401 | 4.97 | 1.76 | 0.84 | -1.1 | -96.321 | -1.1 | 0.252 µM and 0.356 µM and 0.0448 µM | 1.25 | 1.85 ± 0.24 | 12.1 | 12.6 |  | 0.885 µM and 0.703 µM and 0.789 µM and 1.25 µM and 0.993 µM and 0.627 µM and 0.444 µM and 0.314 µM and 0.498 µM |  | 
CNC(=O)Oc1ccccc1C(C)C [Isoprocarb] | 8.53 ± 0.55 | 21 ± 9.16 | -1.1 | -91.575 | 6.55 ± 0.83 | 5.45 ± 4.07 | 12.5 | -2.1 | -88.562 | -1.1 | 3.56 µM and 4.48 µM | 8.21 ± 0.55 | 9.21 ± 0.62 |  | 39.6 | R | 9.93 µM and 14 µM and 17.7 µM and 22.2 µM and 12.5 µM and 4.98 µM and 3.95 µM and 5.59 µM |  | potency (IC50), Neural stem cell spheroid (24 h) [8]: Inactive
CCOC(=O)c1ccc(NC(=O)CN2CCCCC2)cc1 [Sulcaine, reference compound] | 23.4 | 19.6 | -2.2 | -40.558 | 20.1 | 12.9 | 20.9 | 4 | 0 | -2.1 | 30.9 µM and 27.5 µM and 15.5 µM | 15.3 | 23.4 ± 1.53 | 15.6 | 13.7 | R |  | 30.9 µM | AC50 ([9]; activity_5): 24.3 µM and 27.3 µM; AC50 ([9]; activity_10): 24.3 µM and 27.3 µM; AC50 ([9]; activity_60): 21.7 µM and 27.3 µM
